Assay results from US11033539B2, “Compounds of formulas (VII), (VIII), (IX), (XI), (XII), (XIII), and (XIV) as muscarinic receptor 4(M4) antagonists for treating neurological diseases” (Neurocrine Biosciences, Inc., priority 2015, dated 2021).

target: human M4 receptor (Homo sapiens (Human), UniProt P08173); experiment: Radioligand (tritiated N-methylscopolamine) binding assay, M4; settings: Ki against the M4 receptor; membranes from CHO cells expressing human M4; tritiated N-methylscopolamine 1.5 nM; read-out: Ki
Sequence (P08173 whole entry): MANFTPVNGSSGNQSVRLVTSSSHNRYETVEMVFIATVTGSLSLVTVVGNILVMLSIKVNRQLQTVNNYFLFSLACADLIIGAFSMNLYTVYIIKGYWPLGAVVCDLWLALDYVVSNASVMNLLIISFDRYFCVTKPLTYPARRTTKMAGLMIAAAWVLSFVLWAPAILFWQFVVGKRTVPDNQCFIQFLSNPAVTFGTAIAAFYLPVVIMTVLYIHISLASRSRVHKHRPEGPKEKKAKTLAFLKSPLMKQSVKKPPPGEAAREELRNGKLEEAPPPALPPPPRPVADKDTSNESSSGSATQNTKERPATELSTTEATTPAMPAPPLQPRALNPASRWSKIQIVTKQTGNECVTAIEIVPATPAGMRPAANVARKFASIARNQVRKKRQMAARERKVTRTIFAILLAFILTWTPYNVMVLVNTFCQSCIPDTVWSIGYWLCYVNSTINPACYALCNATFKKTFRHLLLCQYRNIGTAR
Procedure, shortened: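 Ki values come from displacement of 1.5 nM radioligand from membranes of receptor-expressing CHO cells, with filter-trapped radioactivity counted after rapid vacuum filtration. Twelve compound concentrations (10 μM to […]) were incubated for 90 min at 37 °C at pH 7.4.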

SMILES	Ki
C[C@@H]1CN(c2cc(F)c(F)c(F)c2)CCN1C(=O)NCCC1CCN(Cc2ccc(F)c(F)c2F)CC1 [6-22, (2R)-2-methyl-4-(3,4,5-trifluorophenyl)-N-(2-{1-[(2,3,4-trifluorophenyl)methyl]piperidin-4-yl}ethyl)piperazine-1-carboxamide]	100 to 1000 nM
C[C@@H]1CN(c2ncc(C(F)(F)F)cn2)CCN1C(=O)NCCC1CCN(Cc2ccccn2)CC1 [6-33, (2R)-2-methyl-N-{2-[1-(pyridin-2-ylmethyl)piperidin-4-yl]ethyl}-4-[5-(trifluoromethyl)pyrimidin-2-yl]piperazine-1-carboxamide]	100 to 1000 nM
COc1nc(N2CCN(C(=O)NCCC3CCN(Cc4ccccc4)CC3)[C@H](C)C2)ncc1C#N [5-16, (2R)-N-[2-(1-benzylpiperidin-4-yl)ethyl]-4-(5-cyano-4-methoxypyrimidin-2-yl)-2-methylpiperazine-1-carboxamide]	10 to 100 nM
O=C(CCC1CCN(Cc2ccccc2)CC1)NC1CCN(c2ccc(OC(F)(F)F)cc2)CC1 [9-36, 3-(1-benzylpiperidin-4-yl)-N-{1-[4-(trifluoromethoxy)phenyl]piperidin-4-yl}propanamide]	100 to 1000 nM
O=C(NCCC1CCN(Cc2ccccc2)CC1)N1CCN(c2cccc(O)c2)CC1 [8-28, N-[2-(1-benzylpiperidin-4-yl)ethyl]-4-(3-hydroxyphenyl)piperazine-1-carboxamide]	100 to 1000 nM
C[C@@H]1CN(c2cc(F)c(F)c(F)c2)CCN1C(=O)NCCC1CCN(Cc2cccc(C#N)c2)CC1 [6-18, (2R)-N-(2-{1-[(3-cyanophenyl)methyl]piperidin-4-yl}ethyl)-2-methyl-4-(3,4,5-trifluorophenyl)piperazine-1-carboxamide]	10 to 100 nM
C[C@@H]1CN(c2ccc(F)cc2)CCN1C(=O)NCCC1CCN(Cc2ccccc2)CC1 [4-30, (2R)-N-[2-(1-benzylpiperidin-4-yl)ethyl]-4-(4-fluorophenyl)-2-methylpiperazine-1-carboxamide]	10 to 100 nM
O=C(NCCC1CCN(Cc2ccccc2)CC1)c1ccc(-c2ccc(Cl)cc2)cc1F [9-12, N-[2-(1-benzylpiperidin-4-yl)ethyl]-4-(4-chlorophenyl)-2-fluorobenzamide]	10 to 100 nM
C[C@@H]1CN(c2ccccc2)CCN1C(=O)NCCC1CCN(Cc2ccccc2)CC1 [4-47, (2R)-N-[2-(1-benzylpiperidin-4-yl)ethyl]-2-methyl-4-phenylpiperazine-1-carboxamide]	10 to 100 nM
C[C@@H]1CN(c2cc(F)c(F)c(F)c2)CCN1C(=O)NCCC1CCN(Cc2ccc(OC(F)(F)F)cc2)CC1 [6-24, (2R)-2-methyl-N-[2-(1-{[4-(trifluoromethoxy)phenyl]methyl}piperidin-4-yl)ethyl]-4-(3,4,5-trifluorophenyl)piperazine-1-carboxamide]	100 to 1000 nM
C[C@@H]1CN(c2ncc(C#N)cn2)C[C@H](C)N1C(=O)NCCC1CCN(Cc2ccc(C#N)cc2)CC1 [6-45, (2R,6S)-N-(2-{1-[(4-cyanophenyl)methyl]piperidin-4-yl}ethyl)-4-(5-cyanopyrimidin-2-yl)-2,6-dimethylpiperazine-1-carboxamide]	100 to 1000 nM
C[C@@H]1CN(c2ncc(F)cc2F)CCN1C(=O)NCCC1CCN(Cc2ccccc2)CC1 [4-48, (2R)-N-[2-(1-benzylpiperidin-4-yl)ethyl]-4-(3,5-difluoropyridin-2-yl)-2-methylpiperazine-1-carboxamide]	10 to 100 nM
Cc1cc(CN2CCC(CCNC(=O)N3[C@H](C)CN(c4ncc(C#N)cn4)C[C@@H]3C)CC2)ccc1O [6-57, (2R,6S)-4-(5-cyanopyrimidin-2-yl)-N-(2-{1-[(4-hydroxy-3-methylphenyl)methyl]piperidin-4-yl}ethyl)-2,6-dimethylpiperazine-1-carboxamide]	10 to 100 nM
O=C(NCCC1CCN(Cc2ccccc2)CC1)N1CCC(c2nc3ccccc3s2)CC1 [8-14, 4-(1,3-benzothiazol-2-yl)-N-[2-(1-benzylpiperidin-4-yl)ethyl]piperidine-1-carboxamide]	10 to 100 nM
O=C(NCCC1CCN(Cc2ccccc2)CC1)N1CCN(c2ccc(F)cc2)CC1 [8-35, N-[2-(1-benzylpiperidin-4-yl)ethyl]-4-(4-fluorophenyl)piperazine-1-carboxamide]	100 to 1000 nM
O=C(C1CCN(c2ncc(C(F)(F)F)cc2Cl)CC1)N(CCC1CCN(Cc2ccccc2)CC1)C1CC1 [9-58, N-[2-(1-benzylpiperidin-4-yl)ethyl]-1-[3-chloro-5(trifluoromethyl)pyridin-2-yl]-N-cyclopropylpiperidine-4-carboxamide]	100 to 1000 nM
O=C(NCCC1CCN(Cc2ccccc2)CC1)N1CCN(c2cccc(OC(F)(F)F)c2)CC1 [8-2, N-[2-(1-benzylpiperidin-4-yl)ethyl]-4-[3-(trifluoromethoxy)phenyl]piperazine-1-carboxamide]	10 to 100 nM
C[C@@H]1CN(c2ncc(C#N)cn2)CCN1C(=O)NCCC1CCN(Cc2ccccc2)CC1 [5-13, (2R)-N-[2-(1-benzylpiperidin-4-yl)ethyl]-4-(5-cyanopyrimidin-2-yl)-2-methylpiperazine-1-carboxamide]	10 to 100 nM
C[C@@H]1CN(c2ncc(F)c(C#N)n2)CCN1C(=O)NCCC1CCN(Cc2ccccc2)CC1 [4-55, (2R)-N-[2-(1-benzylpiperidin-4-yl)ethyl]-4-(4-cyano-5-fluoropyrimidin-2-yl)-2-methylpiperazine-1-carboxamide]	100 to 1000 nM
C[C@@H]1CN(c2cc(F)c(F)c(F)c2)CCN1C(=O)NCCC1CCN(CC2CCCCC2)CC1 [6-6, (2R)-N-{2-[1-(cyclohexylmethyl)piperidin-4-yl]ethyl}-2-methyl-4-(3,4,5-trifluorophenyl)piperazine-1-carboxamide]	10 to 100 nM
N#Cc1cc(N2CCC(C(=O)NCCC3(CO)CCN(Cc4ccccc4)CC3)CC2)ccc1F [9-24, N-{2-[1-benzyl-4-(hydroxymethyl)piperidin-4-yl]ethyl}-1-(3-cyano-4-fluorophenyl)piperidine-4-carboxamide]	10 to 100 nM
O=C(NCCC1CCN(Cc2ccccc2)CC1)c1ccc(-c2ccc(F)cc2)cc1 [9-41, N-[2-(1-benzylpiperidin-4-yl)ethyl]-4-(4-fluorophenyl)benzamide]	10 to 100 nM
CC(=O)O[C@H](CNC(=O)N1CCN(c2ccc(F)c(C#N)c2)C[C@H]1C)C1CCN(Cc2ccccc2)CC1 [3-2, (1S)-1-(1-benzylpiperidin-4-yl)-2-{[(2R)-4-(3-cyano-4-fluorophenyl)-2-methylpiperazine-1-carbonyl]amino}ethyl acetate]	10 to 100 nM

Results, then the compound that gave them:

Ki	SMILES
10 to 100 nM	C[C@@H]1CN(c2cnc(C#N)cn2)C[C@H](C)N1C(=O)NCCC1CCN(Cc2ccccc2)CC1 [23-2, (2R,6S)-N-[2-(1-benzylpiperidin-4-yl)ethyl]-4-(5-cyanopyrazin-2-yl)-2,6-dimethylpiperazine-1-carboxamide]
10 to 100 nM	O=C(OCCC1CCN(Cc2ccccc2)CC1)N1CCN(c2ccc(OC(F)(F)F)cc2)CC1 [12-1, 2-(1-benzylpiperidin-4-yl)ethyl 4-[4-(trifluoromethoxy)phenyl]piperazine-1-carboxylate]
10 to 100 nM	O=C(OCCC1CCN(Cc2ccccc2)CC1)N1CCN(c2cccc(OC(F)(F)F)c2)CC1 [12-4, 2-(1-benzylpiperidin-4-yl)ethyl 4-[3-(trifluoromethoxy)phenyl]piperazine-1-carboxylate]
100 to 1000 nM	O=C(NCCC1CCN(Cc2ccccc2O)CC1)c1ccc(Oc2ccccc2)cc1 [11-5, N-(2-{1-[(2-hydroxyphenyl)methyl]piperidin-4-yl}ethyl)-4-phenoxybenzamide]
10 to 100 nM	C[C@@H]1CN(c2ccc(C#N)c(N(C)C)c2)CCN1C(=O)NCCC1CCN(Cc2ccccc2)CC1 [22-26]
10 to 100 nM	CC1(C(=O)NCCC2CCN(Cc3ccccc3)CC2)CCN(c2cccc(OC(F)(F)F)c2)CC1 [10-25, N-[2-(1-benzylpiperidin-4-yl)ethyl]-4-methyl-1-[3-(trifluoromethoxy)phenyl]piperidine-4-carboxamide]
100 to 1000 nM	N#Cc1ccc(N2CCC(C(=O)NCCC3CCN(CC4CCCCC4)CC3)CC2)nc1 [11-8, 1-(5-cyanopyridin-2-yl)-N-{2-[1-(cyclohexylmethyl)piperidin-4-yl]ethyl}piperidine-4-carboxamide]
100 to 1000 nM	CC1(C(=O)NCCC2CCN(Cc3ccccc3)CC2)CCN(c2ccccc2OC(F)(F)F)CC1 [10-4, N-[2-(1-benzylpiperidin-4-yl)ethyl]-4-methyl-1-[2-(trifluoromethoxy)phenyl]piperidine-4-carboxamide]
100 to 1000 nM	O=C(NCCC1CCN(Cc2ccccc2)CC1)C1CCN(c2ccc(F)cn2)CC1 [10-73, N-[2-(1-benzylpiperidin-4-yl)ethyl]-1-(5-fluoropyridin-2-yl)piperidine-4-carboxamide]
10 to 100 nM	Cc1c(C(=O)NCCC2CCN(Cc3ccccc3)CC2)cnc2cc(-c3ccc(OC(F)(F)F)cc3)nn12 [18-13]
100 to 1000 nM	Cc1nc(CN2CCC(CCNC(=O)C3CCN(c4ccc(OC(F)(F)F)cc4)CC3)CC2)cs1 [11-4, N-(2-{1-[(2-methyl-1,3-thiazol-4-yl)methyl]piperidin-4-yl}ethyl)-1-[4-(trifluoromethoxy)phenyl]piperidine-4-carboxamide]
100 to 1000 nM	N#Cc1cc(F)cc(N2CCN(C(=O)OCCC3CCN(Cc4ccccc4)CC3)CC2)c1 [12-9, 2-(1-benzylpiperidin-4-yl)ethyl 4-(3-cyano-5-fluorophenyl)piperazine-1-carboxylate]
100 to 1000 nM	O=C(NCCC1CCN(Cc2ccccc2)CC1)[C@H]1CCN(c2cccc(OC(F)(F)F)c2)C1 [10-52, (3S)-N-[2-(1-benzylpiperidin-4-yl)ethyl]-1-[3-(trifluoromethoxy)phenyl]pyrrolidine-3-carboxamide]
10 to 100 nM	Cc1c(C(=O)NCCC2CCN(Cc3ccccc3)CC2)cnc2cc(-c3cc(F)ccc3F)nn12 [18-10]
100 to 1000 nM	O=C(NCCC1CCN(Cc2ccccc2)CC1)[C@@H]1CCN(c2cccc(OC(F)(F)F)c2)C1 [10-49, (3R)-N-[2-(1-benzylpiperidin-4-yl)ethyl]-1-[3-(trifluoromethoxy)phenyl]pyrrolidine-3-carboxamide]
